Measurements from BindingDB's records for PubMed 31434879 (University of California Irvine (UCI)).

Legend:
[1] = Inhibition of FLT3 (unknown origin) expressed in mouse BaF3 cells assessed as inhibition of FLT3 ligand-FLT3 dependent cell proliferation incubated for 3 days by ATPlite 1step Luminescence Assay reagent based assay
[2] = Inhibition of FLT3-ITD (unknown origin) expressed in mouse BaF3 cells assessed as inhibition of FLT3-ITD dependent cell proliferation incubated for 3 days by ATPlite 1step Luminescence Assay reagent based assay

IC50 [1]: > 10 µM | IC50 [2]: > 10 µM
Structure (SMILES): COc1ncc(F)cc1CNc1ccc(Cc2c[nH]c3ncc(C)cc23)c(F)n1 [US9096593, P-2049]
